Measured values as given in PubChem BioAssay AID248 (DTP/NCI, 2004).
Where “and” joins values, the source holds several entries; their conditions need not be identical. Equal entries are not always repeated. Inconclusive results and toxic doses are left out.

Test system: L1210 leukemia ip in BDF1 mice, survival T/C
Experiment: NCI In Vivo Anticancer Drug Screen. Data for tumor model L1210 Leukemia (intraperitoneal) in B6D2F1 (BDF1) mice
Details: endpoint: mean survival time, higher = longer survival
In short: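 Ratio derived from survival: compound-dosed mice over vehicle-dosed mice, all bearing a transplantable tumor.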

[1] = dose: 100.0 mg/kg/injection, schedule: Q01DX009 (ip), vehicle: Klucel (hydroxypropylcellulose) (HPC)
[2] = dose: 100.0 mg/kg/injection, schedule: Q04DX003 (ip), vehicle: Klucel (hydroxypropylcellulose) (HPC)
[3] = dose: 200.0 mg/kg/injection, schedule: Q01DX009 (ip), vehicle: Klucel (hydroxypropylcellulose) (HPC)
[4] = dose: 100.0 mg/kg/injection, schedule: Q01DX009 (ip), vehicle: saline
[5] = dose: 100.0 mg/kg/injection, schedule: Q04DX003 (ip), vehicle: saline
[6] = dose: 200.0 mg/kg/injection, schedule: Q01DX009 (ip), vehicle: saline
[7] = dose: 200.0 mg/kg/injection, schedule: Q04DX003 (ip), vehicle: saline
[8] = dose: 400.0 mg/kg/injection, schedule: Q01DX009 (ip), vehicle: saline
[9] = dose: 400.0 mg/kg/injection, schedule: Q04DX003 (ip), vehicle: saline

In the case of `O=C(Nc1cc(F)ccc1F)Oc1cccnc1`, the T/C (dose: 25.0 mg/kg/injection, schedule: Q01DX001 (ip), vehicle: Klucel (hydroxypropylcellulose) (HPC)) is reported as 102 % of control, the T/C (dose: 25.0 mg/kg/injection, schedule: Q04DX003 (ip), vehicle: Klucel (hydroxypropylcellulose) (HPC)) is reported as 107 % of control and the T/C (dose: 50.0 mg/kg/injection, schedule: Q01DX001 (ip), vehicle: Klucel (hydroxypropylcellulose) (HPC)) is reported as 104 % of control. The T/C (dose: 50.0 mg/kg/injection, schedule: Q04DX003 (ip), vehicle: Klucel (hydroxypropylcellulose) (HPC)) was 106 % of control, the T/C (dose: 75.0 mg/kg/injection, schedule: Q01DX009 (ip), vehicle: Klucel (hydroxypropylcellulose) (HPC)) was 103 % of control and 108 % of control and the T/C (dose: 100.0 mg/kg/injection, schedule: Q01DX001 (ip), vehicle: Klucel (hydroxypropylcellulose) (HPC)) was 96 % of control. For the same molecule, the T/C [1] was 95 % of control and 109 % of control, the T/C (dose: 100.0 mg/kg/injection, schedule: Q04DX002 (ip), vehicle: Klucel (hydroxypropylcellulose) (HPC)) was 95 % of control and 105 % of control and the T/C [2] was 97 % of control. For the same molecule, the T/C (dose: 150.0 mg/kg/injection, schedule: Q01DX009 (ip), vehicle: Klucel (hydroxypropylcellulose) (HPC)) was 107 % of control, the T/C [3] was 100 % of control and the T/C (dose: 200.0 mg/kg/injection, schedule: Q04DX002 (ip), vehicle: Klucel (hydroxypropylcellulose) (HPC)) was 100 % of control and 108 % of control. The T/C (dose: 400.0 mg/kg/injection, schedule: Q04DX002 (ip), vehicle: Klucel (hydroxypropylcellulose) (HPC)) was 94 % of control and 87 % of control.
`COc1ccc(Cl)cc1NC(=O)Nc1ccc(CCO)cc1` was tested, and the T/C [4] was 100 % of control, the T/C [5] was 113 % of control and the T/C [6] was 91 % of control. The T/C [7] was 103 % of control, the T/C [8] was 93 % of control and the T/C [9] was 101 % of control.
`CC1(C)N=C(N)N=C(N)N1c1ccc(CNC(=O)Nc2cccc(S(=O)(=O)F)c2)cc1` was tested, and the T/C (dose: 6.25 mg/kg/injection, schedule: Q01DX009 (ip), vehicle: saline) was 116 % of control, the T/C (dose: 12.5 mg/kg/injection, schedule: Q01DX009 (ip), vehicle: saline) was 119 % of control and the T/C (dose: 50.0 mg/kg/injection, schedule: Q01DX009 (ip), vehicle: saline) was 154 % of control. The T/C (dose: 88.0 mg/kg/injection, schedule: Q04DX003 (ip), vehicle: saline) was 113 % of control.
With `CC1(C)OCC(CO)([N+](=O)[O-])CO1` the T/C (dose: 12.5 mg/kg/injection, schedule: Q04DX003 (ip), vehicle: saline with Tween-80) was 92 % of control, the T/C (dose: 25.0 mg/kg/injection, schedule: Q01DX009 (ip), vehicle: saline with Tween-80) was 108 % of control and the T/C (dose: 25.0 mg/kg/injection, schedule: Q04DX003 (ip), vehicle: saline with Tween-80) was 93 % of control. For the same molecule, the T/C (dose: 50.0 mg/kg/injection, schedule: Q01DX009 (ip), vehicle: saline with Tween-80) was 108 % of control, the T/C (dose: 50.0 mg/kg/injection, schedule: Q04DX003 (ip), vehicle: saline with Tween-80) was 95 % of control and the T/C (dose: 100.0 mg/kg/injection, schedule: Q01DX009 (ip), vehicle: saline with Tween-80) was 108 % of control. The T/C (dose: 100.0 mg/kg/injection, schedule: Q04DX003 (ip), vehicle: saline with Tween-80) was 100 % of control and the T/C (dose: 150.0 mg/kg/injection, schedule: Q04DX003 (ip), vehicle: saline with Tween-80) was 94 % of control.
With `ClC(Cl)(Cl)C1NCCO1` (stereo unspecified) the T/C [1] was 96 % of control, the T/C [2] was 102 % of control and the T/C [3] was 97 % of control. The T/C (dose: 200.0 mg/kg/injection, schedule: Q04DX003 (ip), vehicle: Klucel (hydroxypropylcellulose) (HPC)) was 94 % of control, the T/C (dose: 400.0 mg/kg/injection, schedule: Q01DX009 (ip), vehicle: Klucel (hydroxypropylcellulose) (HPC)) was 89 % of control and the T/C (dose: 400.0 mg/kg/injection, schedule: Q04DX003 (ip), vehicle: Klucel (hydroxypropylcellulose) (HPC)) was 94 % of control.
`CCO/C=N/c1onc(C)c1C#N` was tested, and the T/C (dose: 100.0 mg/kg/injection, schedule: Q04DX003 (ip), vehicle: carboxymethylcellulose (CMC)) was 102 % of control, the T/C (dose: 200.0 mg/kg/injection, schedule: Q04DX003 (ip), vehicle: carboxymethylcellulose (CMC)) was 100 % of control and the T/C (dose: 400.0 mg/kg/injection, schedule: Q04DX003 (ip), vehicle: carboxymethylcellulose (CMC)) was 90 % of control.
For `COC(=O)C(N)CSCSC` (stereo unspecified), the T/C [4] was 107 % of control, the T/C [5] was 103 % of control and the T/C [6] was 101 % of control. For the same molecule, the T/C [7] was 105 % of control, the T/C [8] was 101 % of control and the T/C [9] was 97 % of control.
